Key:
Format in all cases: functional, cell-based
[1] = test system: SK-N-SH; assay: Cytotoxicity against human SK-N-SH cells assessed as growth inhibition after 48 hrs by SRB assay
[2] = test system: HCT-15; assay: Cytotoxicity against human HCT15 cells assessed as growth inhibition after 48 hrs by SRB assay; details: HCT-15, 48 h
[3] = test system: SW-620; assay: Cytotoxicity against human SW620 cells assessed as growth inhibition after 48 hrs by SRB assay; details: SW-620, 48 h
[4] = test system: HeLa; assay: Cytotoxicity against human HeLa cells assessed as growth inhibition after 48 hrs by SRB assay
[5] = test system: DU-145; assay: Cytotoxicity against human DU145 cells assessed as growth inhibition after 48 hrs by SRB assay; details: DU-145, 48 h
[6] = test system: COLO 205; assay: Cytotoxicity against human COLO205 cells assessed as growth inhibition after 48 hrs by SRB assay; details: COLO 205, 48 h

Row | SMILES | IC50 [1] [µM] | IC50 [2] [µM] | IC50 [3] [µM] | IC50 [4] [µM] | IC50 [5] [µM] | IC50 [6] [µM]
1 | COc1ccc(/C=C/C(=O)c2ccc(OCc3cn([C@@H]4c5cc6c(cc5[C@@H](c5cc(OC)c(O)c(OC)c5)[C@H]5C(=O)OC[C@@H]54)OCO6)nn3)cc2)cc1 | 15.6 | 7.45 | 10.3 | 6.8 | 12.5 | –
2 | COc1cc([C@@H]2c3cc4c(cc3[C@@H](n3cc(COc5ccc(C(=O)/C=C/c6cccc(F)c6)cc5)nn3)[C@H]3COC(=O)[C@H]23)OCO4)cc(OC)c1O | 4.5 | – | 5.36 | 6.4 | 7.4 | 5.15
3 | COc1cc([C@@H]2c3cc4c(cc3[C@@H](n3cc(COc5ccc(C(=O)/C=C/c6ccccc6F)cc5)nn3)[C@H]3COC(=O)[C@H]23)OCO4)cc(OC)c1OC | 6.73 | 12.9 | 8.12 | 17.2 | 20.2 | –
4 | COc1cc([C@@H]2c3cc4c(cc3[C@@H](n3cc(COc5ccc(C(=O)/C=C/c6ccc(F)cc6)cc5)nn3)[C@H]3COC(=O)[C@H]23)OCO4)cc(OC)c1O | 0.39 | 12.4 | 0.35 | 4.5 | 12 | 12.5
5 | COc1cc([C@@H]2c3cc4c(cc3[C@@H](n3cc(COc5ccc(C(=O)/C=C/c6ccccc6)cc5)nn3)[C@H]3COC(=O)[C@H]23)OCO4)cc(OC)c1O | 0.66 | 9.5 | 0.64 | 5.9 | 12 | 12.3
6 | COc1cc(/C=C/C(C)=O)ccc1OCc1cn([C@@H]2c3cc4c(cc3[C@@H](c3cc(OC)c(O)c(OC)c3)[C@H]3C(=O)OC[C@@H]32)OCO4)nn1 | 5.45 | 12.4 | 5.66 | 5 | 6.5 | 18.2
7 | COc1cc([C@@H]2c3cc4c(cc3[C@@H](n3cc(COc5ccc(/C=C/C(=O)c6ccccc6)cc5)nn3)[C@H]3COC(=O)[C@H]23)OCO4)cc(OC)c1O | 8.3 | 6.75 | 4.4 | 9.18 | 5.45 | –
8 | COc1cc(/C=C/C(C)=O)ccc1OCc1cn([C@@H]2c3cc4c(cc3[C@@H](c3cc(OC)c(OC)c(OC)c3)[C@H]3C(=O)OC[C@@H]32)OCO4)nn1 | 10 | 10.4 | 3.41 | 3.4 | – | 8.98
9 | COc1cc([C@@H]2c3cc4c(cc3[C@@H](n3cc(COc5ccc(C(=O)/C=C/c6ccccc6)cc5)nn3)[C@H]3COC(=O)[C@H]23)OCO4)cc(OC)c1OC | 4.13 | 12.8 | 2.02 | 5.34 | 30.2 | 9.12
10 | COc1cc([C@@H]2c3cc4c(cc3[C@@H](n3cc(COc5ccc(C(=O)/C=C/c6ccc(F)cc6)cc5)nn3)[C@H]3COC(=O)[C@H]23)OCO4)cc(OC)c1OC | 3.4 | 12 | 2.4 | – | 6.5 | 13.2
11 | COc1cc([C@@H]2c3cc4c(cc3[C@@H](n3cc(COc5ccc(C(=O)/C=C/c6ccccc6F)cc5)nn3)[C@H]3COC(=O)[C@H]23)OCO4)cc(OC)c1O | 7.4 | 15.2 | 12.6 | – | 9.34 | 12.3
12 | COc1cc([C@@H]2c3cc4c(cc3[C@@H](n3cc(COc5ccc(C(=O)/C=C/c6cccc(F)c6)cc5)nn3)[C@H]3COC(=O)[C@H]23)OCO4)cc(OC)c1OC | 12.4 | 15.6 | 5.21 | 14.2 | 13.3 | 7.32
13 | COc1cc([C@@H]2c3cc4c(cc3[C@@H](n3cc(COc5ccc(C(=O)/C=C/c6cccc(C)c6)cc5)nn3)[C@H]3COC(=O)[C@H]23)OCO4)cc(OC)c1OC | 7.13 | – | 6.53 | 12.2 | 9.36 | 8.23
14 | COc1cc([C@@H]2c3cc4c(cc3[C@@H](O[C@@H]3O[C@@H]5CO[C@@H](C)O[C@H]5[C@H](O)[C@H]3O)[C@H]3COC(=O)[C@H]23)OCO4)cc(OC)c1O [ETOPOSIDE] | 9.03 | 12.2 | 13.2 | 10.4 | 16.4 | 14.2
15 | COc1ccc(/C=C/C(=O)c2ccc(OCc3cn([C@@H]4c5cc6c(cc5[C@@H](c5cc(OC)c(OC)c(OC)c5)[C@H]5C(=O)OC[C@@H]54)OCO6)nn3)cc2)cc1 | 7.32 | 6.12 | 11.2 | – | 10.2 | 12.3
16 | COc1cc([C@@H]2c3cc4c(cc3[C@@H](n3cc(COc5ccc(/C=C/C(C)=O)cc5)nn3)[C@H]3COC(=O)[C@H]23)OCO4)cc(OC)c1OC | 14.4 | 16.3 | 10.2 | – | 11.3 | 7.6
17 | COc1cc([C@@H]2c3cc4c(cc3[C@@H](n3cc(COc5ccc(C(C)=O)cc5)nn3)[C@H]3COC(=O)[C@H]23)OCO4)cc(OC)c1OC | 15.6 | 13.5 | 14.6 | 18.5 | 13.6 | 18.8
18 | COc1cc([C@@H]2c3cc4c(cc3[C@@H](n3cc(COc5ccc(/C=C/C(C)=O)cc5)nn3)[C@H]3COC(=O)[C@H]23)OCO4)cc(OC)c1O | 10.3 | 6.82 | 7.5 | 13.1 | 12 | –
19 | COc1cc([C@@H]2c3cc4c(cc3[C@@H](n3cc(COc5ccc(/C=C/C(=O)c6ccccc6)cc5)nn3)[C@H]3COC(=O)[C@H]23)OCO4)cc(OC)c1OC | 25.6 | 15.3 | 9.2 | 19.1 | 30 | 29.3
20 | COc1cc([C@@H]2c3cc4c(cc3[C@@H](n3cc(COc5ccc(C(=O)/C=C/c6cccc(C)c6)cc5)nn3)[C@H]3COC(=O)[C@H]23)OCO4)cc(OC)c1O | 13.5 | 12.2 | 11.5 | 9.32 | 20.5 | 15.4
21 | COc1cc([C@@H]2c3cc4c(cc3[C@@H](n3cc(COc5ccc(C(C)=O)cc5)nn3)[C@H]3COC(=O)[C@H]23)OCO4)cc(OC)c1O | 11.6 | 12 | 11.6 | 18.9 | 16.6 | 14.8

From ChEMBL document CHEMBL3621136, “Design, synthesis, and biological and docking studies of novel epipodophyllotoxinchalcone hybrids as potential anticancer agents” (Medchemcomm, 2015)
